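Growth conditions: 96-well plates. Treatment: test compound, 48 hours, 5 concentrations. Analysis: linear interpolation between bracketing concentrations; unreached endpoints set to highest concentration. TGI: total growth inhibition.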
Assays:
Assay in all cases: NCI-60 cell line screen, 48 h
SK-MEL-2 melanoma = test system: SK-MEL-2 melanoma
NCI-H23 lung = test system: NCI-H23 lung
HCC-2998 colon = test system: HCC-2998 colon
NCI-H460 lung = test system: NCI-H460 lung
HL-60(TB) leukemia = test system: HL-60(TB) leukemia
786-0 renal = test system: 786-0 renal
SW-620 colon = test system: SW-620 colon
PC-3 prostate = test system: PC-3 prostate
M14 melanoma = test system: M14 melanoma
MALME-3M melanoma = test system: MALME-3M melanoma
A549 NSCLC = test system: A549 NSCLC
OVCAR-3 ovarian = test system: OVCAR-3 ovarian
MOLT-4 leukemia = test system: MOLT-4 leukemia
CCRF-CEM leukemia = test system: CCRF-CEM leukemia
KM12 colon = test system: KM12 colon
U251 CNS = test system: U251 CNS
OVCAR-4 ovarian = test system: OVCAR-4 ovarian
HCT-15 colon = test system: HCT-15 colon
A498 renal = test system: A498 renal
NCI/ADR-RES ovarian = test system: NCI/ADR-RES ovarian
HCT-116 colon = test system: HCT-116 colon
TK-10 renal = test system: TK-10 renal
COLO 205 colon = test system: COLO 205 colon
HOP-92 NSCLC = test system: HOP-92 NSCLC
UO-31 renal = test system: UO-31 renal
UACC-257 melanoma = test system: UACC-257 melanoma
HS 578T breast = test system: HS 578T breast
MDA-MB-435 = test system: MDA-MB-435
MDA-MB-231 breast = test system: MDA-MB-231 breast
UACC-62 melanoma = test system: UACC-62 melanoma
OVCAR-5 ovarian = test system: OVCAR-5 ovarian
SK-MEL-5 melanoma = test system: SK-MEL-5 melanoma
RPMI-8226 leukemia = test system: RPMI-8226 leukemia
K-562 leukemia = test system: K-562 leukemia
DU-145 prostate = test system: DU-145 prostate
NCI-H226 lung = test system: NCI-H226 lung
HT29 colon = test system: HT29 colon
NCI-H522 lung = test system: NCI-H522 lung
SF-295 CNS = test system: SF-295 CNS
ACHN renal = test system: ACHN renal
SF-268 CNS = test system: SF-268 CNS
CAKI-1 renal = test system: CAKI-1 renal
BT-549 breast = test system: BT-549 breast
T-47D breast = test system: T-47D breast
OVCAR-8 ovarian = test system: OVCAR-8 ovarian
LOX IMVI melanoma = test system: LOX IMVI melanoma
HOP-62 NSCLC = test system: HOP-62 NSCLC
RXF 393 renal = test system: RXF 393 renal
SK-OV-3 ovarian = test system: SK-OV-3 ovarian
IGROV1 ovarian = test system: IGROV1 ovarian
SNB-75 CNS = test system: SNB-75 CNS
SK-MEL-28 melanoma = test system: SK-MEL-28 melanoma
SR leukemia = test system: SR leukemia
EKVX NSCLC = test system: EKVX NSCLC
SNB-19 CNS = test system: SNB-19 CNS
SF-539 CNS = test system: SF-539 CNS
SN12C renal = test system: SN12C renal
MCF7 breast = test system: MCF7 breast

Measured: TGI

C#CCNC(CS)C(=O)O (configuration not stated)
> 100 µM: SK-MEL-2 melanoma | NCI-H23 lung | HCC-2998 colon | NCI-H460 lung | HL-60(TB) leukemia | 786-0 renal | SW-620 colon | PC-3 prostate | M14 melanoma | MALME-3M melanoma | A549 NSCLC | OVCAR-3 ovarian | MOLT-4 leukemia | CCRF-CEM leukemia | KM12 colon | U251 CNS | OVCAR-4 ovarian | HCT-15 colon | A498 renal | NCI/ADR-RES ovarian | HCT-116 colon | TK-10 renal | COLO 205 colon | HOP-92 NSCLC | UO-31 renal | UACC-257 melanoma | HS 578T breast | MDA-MB-435 | MDA-MB-231 breast | UACC-62 melanoma | OVCAR-5 ovarian | SK-MEL-5 melanoma | RPMI-8226 leukemia | K-562 leukemia | DU-145 prostate | NCI-H226 lung | HT29 colon | NCI-H522 lung | SF-295 CNS | ACHN renal | SF-268 CNS | CAKI-1 renal | BT-549 breast | T-47D breast | OVCAR-8 ovarian | LOX IMVI melanoma | HOP-62 NSCLC | RXF 393 renal | SK-OV-3 ovarian | IGROV1 ovarian | SNB-75 CNS | SK-MEL-28 melanoma | SR leukemia | EKVX NSCLC | SNB-19 CNS

Cc1cn2c(/C=N/N=C(N)N)c(-c3cccc([N+](=O)[O-])c3)nc2s1
4.05 µM: SF-539 CNS
3.03 µM: ACHN renal
3.92 µM: TK-10 renal
4.36 µM: M14 melanoma
3.21 µM: MDA-MB-435
1.86 µM: HT29 colon
3.13 µM: SK-MEL-5 melanoma
2.95 µM: U251 CNS
3.78 µM: NCI-H460 lung
5.39 µM: EKVX NSCLC
1.07 µM: OVCAR-4 ovarian
4.94 µM: A549 NSCLC
2.58 µM: SF-268 CNS
2.38 µM: KM12 colon
6.06 µM: CAKI-1 renal
3.7 µM: OVCAR-8 ovarian
7.08 µM: 786-0 renal
2.12 µM: MCF7 breast
2.83 µM: HCC-2998 colon
3.35 µM: HOP-92 NSCLC
2.55 µM: SK-MEL-28 melanoma
3.08 µM: SN12C renal
3.27 µM: DU-145 prostate
2.7 µM: SW-620 colon
4.08 µM: PC-3 prostate
19.6 µM: HCT-15 colon | UO-31 renal
3.3 µM: SF-295 CNS | BT-549 breast
2.51 µM: OVCAR-3 ovarian
3.07 µM: UACC-62 melanoma
5.11 µM: NCI-H23 lung
19.7 µM: IGROV1 ovarian
5.5 µM: OVCAR-5 ovarian
3.86 µM: HL-60(TB) leukemia
4.04 µM: MOLT-4 leukemia
2.5 µM: RXF 393 renal
4.22 µM: UACC-257 melanoma
2.22 µM: LOX IMVI melanoma
5.19 µM: HS 578T breast
3.94 µM: MALME-3M melanoma
3.91 µM: NCI-H522 lung
> 100 µM: CCRF-CEM leukemia | NCI/ADR-RES ovarian | HCT-116 colon | RPMI-8226 leukemia
2.71 µM: MDA-MB-231 breast

NS(=O)(=O)c1ccc2c(c1)OCCOCCOCCOCCO2
> 100 µM: NCI-H23 lung | HCC-2998 colon | NCI-H460 lung | HL-60(TB) leukemia | 786-0 renal | SW-620 colon | PC-3 prostate | M14 melanoma | MALME-3M melanoma | A549 NSCLC | MOLT-4 leukemia | CCRF-CEM leukemia | KM12 colon | HCT-15 colon | A498 renal | HCT-116 colon | TK-10 renal | COLO 205 colon | UO-31 renal | UACC-257 melanoma | HS 578T breast | MDA-MB-435 | MDA-MB-231 breast | UACC-62 melanoma | SK-MEL-5 melanoma | RPMI-8226 leukemia | SF-539 CNS | K-562 leukemia | DU-145 prostate | NCI-H226 lung | HT29 colon | NCI-H522 lung | SF-295 CNS | SN12C renal | ACHN renal | SF-268 CNS | CAKI-1 renal | BT-549 breast | T-47D breast | OVCAR-8 ovarian | LOX IMVI melanoma | HOP-62 NSCLC | SK-OV-3 ovarian | IGROV1 ovarian | SNB-75 CNS | SK-MEL-28 melanoma | SR leukemia | EKVX NSCLC | SNB-19 CNS | MCF7 breast
